Data taken from ChEMBL document CHEMBL3784996, “Copper-catalyzed three-component synthesis of aminonaphthoquinone-sulfonylamidine conjugates and in vitro evaluation of their antiproliferative activity” (Bioorg Med Chem Lett, 2016).
pIC50: −log10 of the molar value.

Experiments:
[1] = test system: MCF7; assay: Cytotoxicity against human MCF7 cells after 48 hrs by MTT assay; type: functional, cell-based; details: MCF7, 48 h
[2] = test system: HEK293; assay: Cytotoxicity against HEK293 cells after 48 hrs by MTT assay; type: cell-based; details: Homo sapiens, HEK293, 48 h
[3] = test system: HeLa; assay: Cytotoxicity against human HeLa cells after 48 hrs by MTT assay; type: functional, cell-based
[4] = test system: A549; assay: Cytotoxicity against human A549 cells after 48 hrs by MTT assay; type: functional, cell-based; details: A549, 48 h
[5] = Cytotoxicity against human DU145 cells after 48 hrs by MTT assay; type: functional, cell-based; details: DU-145, 48 h
[6] = test system: MCF7; assay: Induction of cell cycle arrest in human MCF7 cells assessed as accumulation at G2/M phase at 2.5 uM after 48 hrs by propidium iodide staining based flow cytometric analysis (reference value: 28.45 %); type: functional
[7] = test system: MCF7; assay: Induction of cell cycle arrest in human MCF7 cells assessed as accumulation at G2/M phase at 5 uM after 48 hrs by propidium iodide staining based flow cytometric analysis (reference value: 28.45 %); type: functional
[8] = test system: MCF7; assay: Induction of cell cycle arrest in human MCF7 cells assessed as accumulation at S phase at 2.5 uM after 48 hrs by propidium iodide staining based flow cytometric analysis (reference value: 5.04 %); type: functional
[9] = test system: MCF7; assay: Induction of cell cycle arrest in human MCF7 cells assessed as accumulation at G0/G1 phase at 5 uM after 48 hrs by propidium iodide staining based flow cytometric analysis (reference value: 62.95 %); type: functional
[10] = test system: MCF7; assay: Induction of cell cycle arrest in human MCF7 cells assessed as accumulation at sub G1 phase at 5 uM after 48 hrs by propidium iodide staining based flow cytometric analysis (reference value: 2.58 %); type: functional
[11] = test system: MCF7; assay: Induction of cell cycle arrest in human MCF7 cells assessed as accumulation at G0/G1 phase at 2.5 uM after 48 hrs by propidium iodide staining based flow cytometric analysis (reference value: 62.95 %); type: functional
[12] = test system: MCF7; assay: Induction of cell cycle arrest in human MCF7 cells assessed as accumulation at sub G1 phase at 2.5 uM after 48 hrs by propidium iodide staining based flow cytometric analysis (reference value: 2.58 %); type: functional
[13] = test system: MCF7; assay: Induction of cell cycle arrest in human MCF7 cells assessed as accumulation at S phase at 5 uM after 48 hrs by propidium iodide staining based flow cytometric analysis (reference value: 5.04 %); type: functional

| Structure (SMILES) | pIC50 [1] | pIC50 [2] | pIC50 [3] | pIC50 [4] | pIC50 [5] | Activity [6] | Activity [7] | Activity [8] | Activity [9] | Activity [10] | Activity [11] | Activity [12] | Activity [13] |
| --- | --- | --- | --- | --- | --- | --- | --- | --- | --- | --- | --- | --- | --- |
| C#CCNC1=CC(=O)c2ccccc2C1=O | 4.62 | 4.11 | 4.51 | 4.33 | 4.40 | – | – | – | – | – | – | – | – |
| Cc1ccc(S(=O)(=O)/N=C(/CCNC2=CC(=O)c3ccccc3C2=O)Nc2cc(F)c(F)c(F)c2)cc1 | 5.18 | 4.08 | 5.07 | 4.99 | 4.90 | – | – | – | – | – | – | – | – |
| Cc1ccc(S(=O)(=O)/N=C(/CCNC2=CC(=O)c3ccccc3C2=O)Nc2ccc(F)c(F)c2)cc1 | 5.03 | 4.26 | 5.06 | 4.78 | 4.89 | – | – | – | – | – | – | – | – |
| Cc1ccc(S(=O)(=O)/N=C(/CCNC2=CC(=O)c3ccccc3C2=O)Nc2ccccc2[N+](=O)[O-])cc1 | 5.51 | 4.16 | 5.48 | 5.30 | 5.12 | 27.47% | 23.6% | 3.11% | 68.18% | 2.6% | 63.91% | 2.5% | 3.09% |
| Cc1ccc(S(=O)(=O)/N=C(/CCNC2=CC(=O)c3ccccc3C2=O)Nc2ccccc2I)cc1 | 4.81 | 4.31 | 4.72 | 4.61 | 4.93 | – | – | – | – | – | – | – | – |
| COc1ccc(N/C(CCNC2=CC(=O)C(C)=C(C)C2=O)=N\S(=O)(=O)c2ccc(C)cc2)cc1OC | 5.06 | 4.10 | 4.98 | 4.81 | 4.85 | – | – | – | – | – | – | – | – |
| Cc1ccc(S(=O)(=O)/N=C(\N)CCNC2=CC(=O)c3ccccc3C2=O)cc1 | 4.73 | 4.20 | 4.61 | 4.57 | 4.51 | – | – | – | – | – | – | – | – |
| Cc1ccc(S(=O)(=O)/N=C(/CCNC2=CC(=O)c3ccccc3C2=O)Nc2ccc(F)cc2)cc1 | 5.37 | 4.26 | 5.23 | 5.03 | 4.91 | – | – | – | – | – | – | – | – |
| COc1ccc(N/C(CCNC2=CC(=O)c3ccccc3C2=O)=N\S(=O)(=O)c2ccc(C)cc2)cc1 | 5.22 | 4.45 | 5.12 | 4.59 | 4.92 | – | – | – | – | – | – | – | – |
| Cc1ccc(S(=O)(=O)/N=C(/CCNC2=CC(=O)c3ccccc3C2=O)Nc2cccc(C(F)(F)F)c2)cc1 | 4.05 | 4.04 | 4.11 | 4.11 | 4.08 | – | – | – | – | – | – | – | – |
| Cc1ccc(S(=O)(=O)/N=C(/CCNC2=CC(=O)c3ccccc3C2=O)Nc2ccc(Cl)cc2Cl)cc1 | 4.77 | 4.38 | 4.69 | 4.48 | 4.73 | – | – | – | – | – | – | – | – |
| COc1ccc(N/C(CCNC2=C(Br)C(=O)c3ccccc3C2=O)=N\S(=O)(=O)c2ccc(C)cc2)cc1OC | 5.18 | 4.45 | 5.27 | 4.76 | 4.53 | – | – | – | – | – | – | – | – |
| Cc1ccc(S(=O)(=O)/N=C(/CCNC2=CC(=O)c3ccccc3C2=O)NCCc2c[nH]c3ccccc23)cc1 | 5.11 | 4.37 | 5.03 | 4.77 | 4.55 | – | – | – | – | – | – | – | – |
| Cc1ccc(S(=O)(=O)/N=C(/CCNC2=CC(=O)c3ccccc3C2=O)NC2CCCCC2)cc1 | 5.12 | 4.30 | 5.01 | 4.83 | 4.78 | – | – | – | – | – | – | – | – |
| COc1ccc(N/C(CCNC2=CC(=O)c3ccccc3C2=O)=N\S(=O)(=O)c2ccc(C(C)(C)C)cc2)cc1OC | 5.06 | 4.21 | 4.94 | 4.79 | 4.84 | – | – | – | – | – | – | – | – |
| COc1cc(N/C(CCNC2=CC(=O)c3ccccc3C2=O)=N\S(=O)(=O)c2ccc(C)cc2)cc(OC)c1OC | 5.52 | 4.12 | 5.47 | 5.10 | 5.03 | 27.51% | 5.23% | 4.14% | 84.55% | 3.01% | 64.17% | 1.86% | 5.19% |
| Cc1ccc(S(=O)(=O)/N=C(/CCNC2=CC(=O)c3ccccc3C2=O)Nc2ccc(Cl)cc2)cc1 | 5.15 | 4.18 | 4.87 | 4.52 | 4.49 | – | – | – | – | – | – | – | – |
| Cc1ccc(S(=O)(=O)/N=C(/CCNC2=CC(=O)c3ccccc3C2=O)NCc2ccccc2)cc1 | 5.44 | 4.10 | 5.40 | 5.13 | 5.04 | – | – | – | – | – | – | – | – |
| Cc1ccc(S(=O)(=O)/N=C(/CCNC2=CC(=O)c3ccccc3C2=O)Nc2cccc(C)c2)cc1 | 5.09 | 4.25 | 5.04 | 4.73 | 4.99 | – | – | – | – | – | – | – | – |
| COc1ccc(N/C(CCNC2=CC(=O)c3ccccc3C2=O)=N\S(=O)(=O)c2ccc(C)cc2)c(OC)c1 | 4.52 | 4.08 | 4.17 | 3.90 | 4.17 | – | – | – | – | – | – | – | – |
| Cc1ccc(S(=O)(=O)/N=C(/CCNC2=CC(=O)c3ccccc3C2=O)NC(C)C)cc1 | 4.78 | 4.14 | 4.52 | 4.35 | 4.55 | – | – | – | – | – | – | – | – |
| COc1ccc(N/C(CCNC2=CC(=O)c3ccccc3C2=O)=N\S(=O)(=O)c2ccc(C)cc2)cc1OC | 4.91 | 4.22 | 4.84 | 4.69 | 4.75 | – | – | – | – | – | – | – | – |
| COc1cccc2c1C(=O)c1c(O)c3c(c(O)c1C2=O)C[C@@](O)(C(=O)CO)C[C@@H]3O[C@H]1C[C@H](N)[C@H](O)[C@H](C)O1 [DOXORUBICIN] | – | – | 5.80 | 5.63 | 5.97 | – | – | – | – | – | – | – | – |
